Assay results published in the NIST ThermoML archive (doi:10.1016/j.fluid.2006.03.015).
± gives the expanded uncertainty stated by the source.

Test: molar heat capacity at constant pressure
Conditions: 101.33 kPa, Liquid
[1] = 328.15 K, modulated-temperature differential scanning calorimetry MDSC
[2] = 330.15 K, Small sample (50 mg) DSC
[3] = 333.15 K, modulated-temperature differential scanning calorimetry MDSC
[4] = 335.15 K, Small sample (50 mg) DSC
[5] = 338.15 K, modulated-temperature differential scanning calorimetry MDSC
[6] = 340.15 K, Small sample (50 mg) DSC
[7] = 343.15 K, modulated-temperature differential scanning calorimetry MDSC
[8] = 345.15 K, Small sample (50 mg) DSC
[9] = 348.15 K, modulated-temperature differential scanning calorimetry MDSC
[10] = 350.15 K, Small sample (50 mg) DSC
[11] = 353.15 K, modulated-temperature differential scanning calorimetry MDSC
[12] = 355.15 K, Small sample (50 mg) DSC
[13] = 358.15 K, modulated-temperature differential scanning calorimetry MDSC
[14] = 360.15 K, Small sample (50 mg) DSC
[15] = 363.15 K, modulated-temperature differential scanning calorimetry MDSC
[16] = 365.15 K, Small sample (50 mg) DSC
[17] = 368.15 K, modulated-temperature differential scanning calorimetry MDSC
[18] = 370.15 K, Small sample (50 mg) DSC
[19] = 373.15 K, modulated-temperature differential scanning calorimetry MDSC
[20] = 375.15 K, Small sample (50 mg) DSC
[21] = 378.13 K, Large sample (1 g) DSC
[22] = 378.15 K, modulated-temperature differential scanning calorimetry MDSC
[23] = 380.15 K, Small sample (50 mg) DSC
[24] = 383.15 K, modulated-temperature differential scanning calorimetry MDSC
[25] = 385.15 K, Small sample (50 mg) DSC
[26] = 388.15 K, modulated-temperature differential scanning calorimetry MDSC
[27] = 390.15 K, Small sample (50 mg) DSC
[28] = 393.14 K, Large sample (1 g) DSC
[29] = 393.15 K, modulated-temperature differential scanning calorimetry MDSC
[30] = 395.15 K, Small sample (50 mg) DSC
[31] = 398.15 K, modulated-temperature differential scanning calorimetry MDSC
[32] = 400.15 K, Small sample (50 mg) DSC
[33] = 403.15 K, modulated-temperature differential scanning calorimetry MDSC
[34] = 405.15 K, Small sample (50 mg) DSC
[35] = 408.15 K, modulated-temperature differential scanning calorimetry MDSC
[36] = 410.15 K, Small sample (50 mg) DSC
[37] = 413.15 K, modulated-temperature differential scanning calorimetry MDSC
[38] = 415.15 K, Small sample (50 mg) DSC
[39] = 420.15 K, Small sample (50 mg) DSC
[40] = 425.15 K, Small sample (50 mg) DSC

CCCC[n+]1ccccc1.O=S(=O)([N-]S(=O)(=O)C(F)(F)F)C(F)(F)F [1-butylpyridinium bis[(trifluoromethyl)sulfonyl]imide]
molar heat capacity at constant pressure (323.18 K, Large sample (1 g) DSC): 592 ± 31 J/K/mol | molar heat capacity at constant pressure [1]: 604 ± 30 J/K/mol | molar heat capacity at constant pressure (328.18 K, Large sample (1 g) DSC): 595 ± 31 J/K/mol | molar heat capacity at constant pressure [2]: 587 ± 31 J/K/mol | molar heat capacity at constant pressure (333.13 K, Large sample (1 g) DSC): 596 ± 31 J/K/mol | molar heat capacity at constant pressure [3]: 607 ± 30 J/K/mol | molar heat capacity at constant pressure [4]: 590 ± 31 J/K/mol | molar heat capacity at constant pressure (338.14 K, Large sample (1 g) DSC): 600 ± 31 J/K/mol | molar heat capacity at constant pressure [5]: 610 ± 31 J/K/mol | molar heat capacity at constant pressure [6]: 594 ± 31 J/K/mol | molar heat capacity at constant pressure [7]: 610 ± 31 J/K/mol | molar heat capacity at constant pressure (343.16 K, Large sample (1 g) DSC): 603 ± 31 J/K/mol | molar heat capacity at constant pressure [8]: 596 ± 31 J/K/mol | molar heat capacity at constant pressure (348.12 K, Large sample (1 g) DSC): 603 ± 31 J/K/mol | molar heat capacity at constant pressure [9]: 616 ± 31 J/K/mol | molar heat capacity at constant pressure [10]: 600 ± 31 J/K/mol | molar heat capacity at constant pressure (353.14 K, Large sample (1 g) DSC): 604 ± 31 J/K/mol | molar heat capacity at constant pressure [11]: 615 ± 31 J/K/mol | molar heat capacity at constant pressure [12]: 603 ± 31 J/K/mol | molar heat capacity at constant pressure (358.15 K, Large sample (1 g) DSC): 609 ± 32 J/K/mol | molar heat capacity at constant pressure [13]: 621 ± 31 J/K/mol | molar heat capacity at constant pressure [14]: 605 ± 31 J/K/mol | molar heat capacity at constant pressure [15]: 624 ± 31 J/K/mol | molar heat capacity at constant pressure (363.17 K, Large sample (1 g) DSC): 614 ± 32 J/K/mol | molar heat capacity at constant pressure [16]: 607 ± 32 J/K/mol | molar heat capacity at constant pressure [17]: 623 ± 31 J/K/mol | molar heat capacity at constant pressure (368.17 K, Large sample (1 g) DSC): 617 ± 32 J/K/mol | molar heat capacity at constant pressure [18]: 610 ± 32 J/K/mol | molar heat capacity at constant pressure [19]: 628 ± 31 J/K/mol | molar heat capacity at constant pressure (373.16 K, Large sample (1 g) DSC): 617 ± 32 J/K/mol | molar heat capacity at constant pressure [20]: 613 ± 32 J/K/mol | molar heat capacity at constant pressure [21]: 618 ± 32 J/K/mol | molar heat capacity at constant pressure [22]: 628 ± 31 J/K/mol | molar heat capacity at constant pressure [23]: 616 ± 32 J/K/mol | molar heat capacity at constant pressure (383.14 K, Large sample (1 g) DSC): 621 ± 32 J/K/mol | molar heat capacity at constant pressure [24]: 631 ± 32 J/K/mol | molar heat capacity at constant pressure [25]: 619 ± 32 J/K/mol | molar heat capacity at constant pressure (388.14 K, Large sample (1 g) DSC): 623 ± 32 J/K/mol | molar heat capacity at constant pressure [26]: 635 ± 32 J/K/mol | molar heat capacity at constant pressure [27]: 622 ± 32 J/K/mol | molar heat capacity at constant pressure [28]: 626 ± 33 J/K/mol | molar heat capacity at constant pressure [29]: 636 ± 32 J/K/mol | molar heat capacity at constant pressure [30]: 624 ± 32 J/K/mol | molar heat capacity at constant pressure (398.13 K, Large sample (1 g) DSC): 630 ± 33 J/K/mol | molar heat capacity at constant pressure [31]: 636 ± 32 J/K/mol | molar heat capacity at constant pressure [32]: 627 ± 33 J/K/mol | molar heat capacity at constant pressure [33]: 640 ± 32 J/K/mol | molar heat capacity at constant pressure (403.17 K, Large sample (1 g) DSC): 631 ± 33 J/K/mol | molar heat capacity at constant pressure [34]: 630 ± 33 J/K/mol | molar heat capacity at constant pressure (408.14 K, Large sample (1 g) DSC): 632 ± 33 J/K/mol | molar heat capacity at constant pressure [35]: 642 ± 32 J/K/mol | molar heat capacity at constant pressure [36]: 633 ± 33 J/K/mol | molar heat capacity at constant pressure [37]: 644 ± 32 J/K/mol | molar heat capacity at constant pressure (413.16 K, Large sample (1 g) DSC): 633 ± 33 J/K/mol | molar heat capacity at constant pressure [38]: 635 ± 33 J/K/mol | molar heat capacity at constant pressure (418.13 K, Large sample (1 g) DSC): 636 ± 33 J/K/mol | molar heat capacity at constant pressure (418.15 K, modulated-temperature differential scanning calorimetry MDSC): 645 ± 32 J/K/mol | molar heat capacity at constant pressure [39]: 639 ± 33 J/K/mol | molar heat capacity at constant pressure (423.15 K, Large sample (1 g) DSC): 635 ± 33 J/K/mol | molar heat capacity at constant pressure [40]: 641 ± 33 J/K/mol

CCn1cc[n+](C)c1.O=S(=O)([O-])C(F)(F)F [1-ethyl-3-methylimidazolium trifluoromethanesulfonate]
molar heat capacity at constant pressure (313.13 K, Large sample (1 g) DSC): 384 ± 20 J/K/mol | molar heat capacity at constant pressure (315.15 K, Small sample (50 mg) DSC): 386 ± 20 J/K/mol | molar heat capacity at constant pressure (318.13 K, Large sample (1 g) DSC): 385 ± 20 J/K/mol | molar heat capacity at constant pressure (320.15 K, Small sample (50 mg) DSC): 388 ± 20 J/K/mol | molar heat capacity at constant pressure (323.12 K, Large sample (1 g) DSC): 386 ± 20 J/K/mol | molar heat capacity at constant pressure (325.15 K, Small sample (50 mg) DSC): 390 ± 20 J/K/mol | molar heat capacity at constant pressure [1]: 392 ± 20 J/K/mol | molar heat capacity at constant pressure (328.16 K, Large sample (1 g) DSC): 384 ± 20 J/K/mol | molar heat capacity at constant pressure [2]: 392 ± 20 J/K/mol | molar heat capacity at constant pressure (333.14 K, Large sample (1 g) DSC): 383 ± 20 J/K/mol | molar heat capacity at constant pressure [3]: 395 ± 20 J/K/mol | molar heat capacity at constant pressure [4]: 394 ± 20 J/K/mol | molar heat capacity at constant pressure [5]: 397 ± 20 J/K/mol | molar heat capacity at constant pressure (338.17 K, Large sample (1 g) DSC): 387 ± 20 J/K/mol | molar heat capacity at constant pressure [6]: 395 ± 21 J/K/mol | molar heat capacity at constant pressure [7]: 398 ± 20 J/K/mol | molar heat capacity at constant pressure (343.17 K, Large sample (1 g) DSC): 391 ± 20 J/K/mol | molar heat capacity at constant pressure [8]: 396 ± 21 J/K/mol | molar heat capacity at constant pressure (348.13 K, Large sample (1 g) DSC): 392 ± 20 J/K/mol | molar heat capacity at constant pressure [9]: 400 ± 20 J/K/mol | molar heat capacity at constant pressure [10]: 397 ± 21 J/K/mol | molar heat capacity at constant pressure [11]: 402 ± 20 J/K/mol | molar heat capacity at constant pressure (353.16 K, Large sample (1 g) DSC): 393 ± 20 J/K/mol | molar heat capacity at constant pressure [12]: 399 ± 21 J/K/mol | molar heat capacity at constant pressure (358.12 K, Large sample (1 g) DSC): 395 ± 21 J/K/mol | molar heat capacity at constant pressure [13]: 404 ± 20 J/K/mol | molar heat capacity at constant pressure [14]: 401 ± 21 J/K/mol | molar heat capacity at constant pressure (363.14 K, Large sample (1 g) DSC): 398 ± 21 J/K/mol | molar heat capacity at constant pressure [15]: 405 ± 20 J/K/mol | molar heat capacity at constant pressure [16]: 403 ± 21 J/K/mol | molar heat capacity at constant pressure (368.14 K, Large sample (1 g) DSC): 400 ± 21 J/K/mol | molar heat capacity at constant pressure [17]: 408 ± 20 J/K/mol | molar heat capacity at constant pressure [18]: 405 ± 21 J/K/mol | molar heat capacity at constant pressure (373.14 K, Large sample (1 g) DSC): 401 ± 21 J/K/mol | molar heat capacity at constant pressure [19]: 409 ± 20 J/K/mol | molar heat capacity at constant pressure [20]: 406 ± 21 J/K/mol | molar heat capacity at constant pressure [21]: 402 ± 21 J/K/mol | molar heat capacity at constant pressure [22]: 411 ± 21 J/K/mol | molar heat capacity at constant pressure [23]: 409 ± 21 J/K/mol | molar heat capacity at constant pressure [24]: 412 ± 21 J/K/mol | molar heat capacity at constant pressure (383.17 K, Large sample (1 g) DSC): 405 ± 21 J/K/mol | molar heat capacity at constant pressure [25]: 410 ± 21 J/K/mol | molar heat capacity at constant pressure (388.15 K, Large sample (1 g) DSC): 407 ± 21 J/K/mol | molar heat capacity at constant pressure [26]: 414 ± 21 J/K/mol | molar heat capacity at constant pressure [27]: 412 ± 21 J/K/mol | molar heat capacity at constant pressure [28]: 410 ± 21 J/K/mol | molar heat capacity at constant pressure [29]: 416 ± 21 J/K/mol | molar heat capacity at constant pressure [30]: 414 ± 22 J/K/mol | molar heat capacity at constant pressure [31]: 416 ± 21 J/K/mol | molar heat capacity at constant pressure (398.17 K, Large sample (1 g) DSC): 411 ± 21 J/K/mol | molar heat capacity at constant pressure [32]: 416 ± 22 J/K/mol | molar heat capacity at constant pressure (403.15 K, Large sample (1 g) DSC): 414 ± 22 J/K/mol | molar heat capacity at constant pressure [33]: 418 ± 21 J/K/mol | molar heat capacity at constant pressure [34]: 418 ± 22 J/K/mol | molar heat capacity at constant pressure (408.12 K, Large sample (1 g) DSC): 416 ± 22 J/K/mol | molar heat capacity at constant pressure [35]: 419 ± 21 J/K/mol | molar heat capacity at constant pressure [36]: 420 ± 22 J/K/mol | molar heat capacity at constant pressure (413.15 K, Large sample (1 g) DSC): 419 ± 22 J/K/mol | molar heat capacity at constant pressure [37]: 421 ± 21 J/K/mol | molar heat capacity at constant pressure [38]: 422 ± 22 J/K/mol | molar heat capacity at constant pressure (418.17 K, Large sample (1 g) DSC): 421 ± 22 J/K/mol | molar heat capacity at constant pressure [39]: 424 ± 22 J/K/mol | molar heat capacity at constant pressure (423.14 K, Large sample (1 g) DSC): 422 ± 22 J/K/mol | molar heat capacity at constant pressure [40]: 425 ± 22 J/K/mol
